Data taken from patent US10562898B2, “Substituted benzenesulfonamides as inhibitors of alpha-4 beta-7 integrin activity” (EA PHARMA CO., LTD., priority 2016, dated 2020).

These compounds were tested against T1, α4β1 integrin (Homo sapiens, UniProt P05556+P13612) (assay: VCAM-1/α4β1 integrin binding inhibitory activity evaluation test (Jurkat cells binding to VCAM-1/Fc)). Settings: recombinant human VCAM-1/Fc.
T1 construct: a cell line Jurkat, which is known to express α4β1 integrin; endogenous in cells; host or cells: Jurkat (human T cell line)
T1 sequence (P13612 34-1032): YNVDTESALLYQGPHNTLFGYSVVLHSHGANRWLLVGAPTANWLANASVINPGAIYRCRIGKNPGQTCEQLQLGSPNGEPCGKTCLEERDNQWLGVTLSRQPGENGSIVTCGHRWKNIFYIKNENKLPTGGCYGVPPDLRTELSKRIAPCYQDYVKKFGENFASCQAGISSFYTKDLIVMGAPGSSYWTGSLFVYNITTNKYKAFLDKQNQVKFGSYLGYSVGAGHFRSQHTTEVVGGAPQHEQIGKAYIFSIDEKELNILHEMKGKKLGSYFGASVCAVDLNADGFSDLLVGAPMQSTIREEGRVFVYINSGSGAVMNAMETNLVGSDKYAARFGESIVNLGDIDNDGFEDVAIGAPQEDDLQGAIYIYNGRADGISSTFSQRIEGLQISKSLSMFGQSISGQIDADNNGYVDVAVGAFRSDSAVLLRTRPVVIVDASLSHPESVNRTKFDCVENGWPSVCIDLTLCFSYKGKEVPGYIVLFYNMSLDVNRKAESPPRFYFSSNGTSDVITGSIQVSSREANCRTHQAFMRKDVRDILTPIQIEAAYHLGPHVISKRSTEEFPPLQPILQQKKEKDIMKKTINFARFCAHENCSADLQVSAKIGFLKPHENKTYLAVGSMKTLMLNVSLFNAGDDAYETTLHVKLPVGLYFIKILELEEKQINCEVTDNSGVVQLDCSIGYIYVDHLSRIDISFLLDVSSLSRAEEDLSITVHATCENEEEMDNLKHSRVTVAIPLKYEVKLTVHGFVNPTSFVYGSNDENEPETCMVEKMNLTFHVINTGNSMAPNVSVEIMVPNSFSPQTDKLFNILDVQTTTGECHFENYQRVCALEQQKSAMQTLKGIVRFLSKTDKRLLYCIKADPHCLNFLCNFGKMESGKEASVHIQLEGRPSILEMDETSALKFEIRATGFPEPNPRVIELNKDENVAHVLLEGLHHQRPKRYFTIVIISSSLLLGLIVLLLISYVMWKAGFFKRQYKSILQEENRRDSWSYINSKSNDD
T1 sequence (P05556 21-798): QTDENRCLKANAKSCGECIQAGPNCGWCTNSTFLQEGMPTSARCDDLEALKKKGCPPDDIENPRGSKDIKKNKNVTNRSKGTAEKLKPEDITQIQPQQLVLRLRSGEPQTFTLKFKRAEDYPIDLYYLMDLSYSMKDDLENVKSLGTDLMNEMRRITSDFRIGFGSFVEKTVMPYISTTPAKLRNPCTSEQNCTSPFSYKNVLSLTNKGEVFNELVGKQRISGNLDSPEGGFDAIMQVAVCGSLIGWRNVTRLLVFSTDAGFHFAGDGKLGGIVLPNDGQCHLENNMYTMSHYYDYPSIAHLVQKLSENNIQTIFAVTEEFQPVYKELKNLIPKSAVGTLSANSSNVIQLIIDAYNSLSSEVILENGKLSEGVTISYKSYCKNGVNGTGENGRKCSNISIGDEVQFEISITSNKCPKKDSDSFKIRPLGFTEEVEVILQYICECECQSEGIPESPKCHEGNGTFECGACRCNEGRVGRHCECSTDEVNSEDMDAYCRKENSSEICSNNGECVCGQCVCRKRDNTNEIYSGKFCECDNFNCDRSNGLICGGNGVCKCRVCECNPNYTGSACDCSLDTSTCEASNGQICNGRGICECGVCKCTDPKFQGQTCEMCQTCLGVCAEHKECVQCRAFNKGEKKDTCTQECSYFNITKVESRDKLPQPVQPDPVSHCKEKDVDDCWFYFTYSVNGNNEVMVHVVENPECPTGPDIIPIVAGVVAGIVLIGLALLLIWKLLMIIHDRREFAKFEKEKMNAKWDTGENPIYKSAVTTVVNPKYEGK
Type: cell-based
Method: (1) VCAM-1/α4β1 Integrin Binding Inhibitory Activity Evaluation Test
Each test substance was measured in terms of an ability to inhibit the VCAM-1 binding of a human T cell line, namely, a cell line Jurkat, which is known to express α4β1 integrin.
A solution of recombinant human VCAM-1/Fc (R&D Systems, Inc.) (1 μg/mL) diluted with a buffer A (carbonate buffer, pH 9.6) was placed in an amount of 50 μL/well in a 96-well microtiter plate, followed by incubation at 4° C. overnight. After the plate was washed with PBS once, 150 μL/well of Block Ace (Snow Brand Milk Products Co., Ltd.) was added, followed by incubation at room temperature for 2 hours. After removal, the plate was washed with PBS once.
Then, 100 μL of the Jurkat cells (2×10^6 cells/mL) and 100 μL of the test substance at each of various concentrations diluted with a binding buffer (DMEM containing 40 mM HEPES, 0.2% BSA, and 4 mM MnCl2) were added to the plate coated with the VCAM-1/Fc (5×10^5 cells/well), followed by incubation at 30° C. for 15 to 60 minutes. After the cells were bound to the wells, the plate was washed with PBS to remove unbound cells. A buffer C (PBS containing 1.5% Triton X-100) was added in an amount 50 μL/well to the plate to lyse the bound Jurkat cells. After 30 μL of a substrate buffer (Promega, CytoTox 96 Non-Radioactive Cytotoxicity Assay) was added to 30 μL of the cell lysate, a reaction was allowed to proceed at room temperature in the dark for 30 minutes. After 30 μL of a stop solution (Promega, CytoTox 96 Non-Radioactive Cytotoxicity Assay) was added to each, and then an absorbance at 490 nm was measured using a plate reader. The absorbance obtained here represents a detection result of an activity of lactate dehydrogenase (LDH) eluted in the supernatant of each well, that is, the absorbance is proportional to the number of Jurkat cells bound to the VCAM-1 and thus remaining on the plate. The test was performed in duplicate. Provided that the absorbance of a well containing no test substance was 100%, a cell binding rate with the test substance at each of the various concentrations was figured out, and a concentration IC50 which brought about 50% binding inhibition was calculated.
In the case of `Cc1c(C)n(C)c(=O)n(-c2ccc(C[C@H](NC(=O)c3cc(F)c(NS(=O)(=O)c4ccc(NC(=O)C(C)(C)CO)cc4)cc3F)C(=O)O)cc2)c1=O` [Compound A21], the IC50 is reported as 680 nM. `Cn1c(=O)n(-c2ccc(C[C@H](NC(=O)c3cc(F)c(NS(=O)(=O)c4ccc(NC(=O)C(C)(C)C)cc4)cc3F)C(=O)O)cc2)c(=O)c2ccncc21` [Compound A1, (2S)-2-[[4-[[4-(2,2-dimethylpropanoylamino)phenyl]sulfonylamino]-2,5-difluoro-benzoyl]amino]-3-[4-(1-methyl-2,4-dioxo-pyrido[3,4-d]pyrimidin-3-yl)phenyl]propanoic acid] gave an IC50 of 440 nM. Work on `CN1C(=O)N(c2ccc(S(=O)(=O)Nc3cc(F)c(C(=O)N[C@@H](Cc4ccc(-n5c(=O)c6ccncc6n(C)c5=O)nc4)C(=O)O)cc3F)cc2)C(=O)C1(C)C` [Compound A38] yielded an IC50 of 4000 nM. With `Cc1cn(C)c(=O)n(-c2ccc(C[C@H](NC(=O)c3cc(F)c(NS(=O)(=O)c4ccc(NC(=O)C5CCCC5)cc4)cc3F)C(=O)O)cn2)c1=O` [Compound A65] the IC50 was 21000 nM. `Cc1c(C)n(C)c(=O)n(-c2ccc(C[C@H](NC(=O)c3cc(F)c(NS(=O)(=O)c4ccc(NC(=O)C(C)(C)C)cc4)cc3F)C(=O)O)cn2)c1=O` [Compound A28] was tested, and the IC50 was 3600 nM. In the case of `Cc1c(C)n(C)c(=O)n(-c2ccc(C[C@H](NC(=O)c3cc(F)c(NS(=O)(=O)c4ccc(N(C)C(=O)C(C)(C)C)cc4)cc3F)C(=O)O)cc2)c1=O` [Compound A35], the IC50 is reported as 3800 nM. With `Cn1c(=O)n(-c2ccc(C[C@H](NC(=O)c3cc(F)c(NS(=O)(=O)c4ccc(NC(=O)NC(C)(C)C)cc4)cc3F)C(=O)O)cc2)c(=O)c2ccncc21` [Compound A5] the IC50 was 2000 nM. `Cc1c(C)n(C)c(=O)n(-c2ccc(C[C@H](NC(=O)c3cc(F)c(NS(=O)(=O)c4cc(NC(=O)C(C)(C)C)cs4)cc3F)C(=O)O)cc2)c1=O` [Compound A11] gave an IC50 of 3200 nM. In the case of `Cc1c(C)n(C)c(=O)n(-c2ccc(C[C@H](NC(=O)c3cc(F)c(NS(=O)(=O)c4ccc(NC(=O)C5(C(F)(F)F)CC5)cc4)cc3F)C(=O)O)cc2)c1=O` [Compound A20], the IC50 is reported as 850 nM. `Cn1ccc(=O)n(-c2ccc(C[C@H](NC(=O)c3cc(F)c(NS(=O)(=O)c4ccc(NC(=O)C(C)(C)C)cc4)cc3F)C(=O)O)nc2)c1=O` [Compound A70] was tested, and the IC50 was 38000 nM. `Cc1c(C)n(C)c(=O)n(-c2ccc(C[C@H](NC(=O)c3cc(F)c(NS(=O)(=O)c4ccc(NC(=O)C(C)(C)C)cc4)cc3F)C(=O)O)cc2)c1=O` [Compound A8] was tested, and the IC50 was 1600 nM. With `Cc1cn(C)c(=O)n(-c2ccc(C[C@H](NC(=O)c3cc(F)c(NS(=O)(=O)c4ccc(NC(=O)C(C)(C)C)cc4)cc3F)C(=O)O)cn2)c1=O` [Compound A54] the IC50 was 29000 nM. `Cn1c(=O)n(-c2ccc(C[C@H](NC(=O)c3cc(F)c(NS(=O)(=O)c4ccc(NC(=O)C5(O)CC5)cc4)cc3F)C(=O)O)cc2)c(=O)c2ccncc21` [Compound A23] showed an IC50 of 820 nM. Compound `Cc1c(C)n(C)c(=O)n(-c2ccc(C[C@H](NC(=O)c3cc(F)c(NS(=O)(=O)c4ccc(NC(=O)C(C)(C)C)nc4)cc3F)C(=O)O)cc2)c1=O` [Compound A25] has an IC50 of 2300 nM. For `Cn1c(=O)n(-c2ccc(C[C@H](NC(=O)c3cc(F)c(NS(=O)(=O)c4ccc(NC(=O)C(C)(C)C)cn4)cc3F)C(=O)O)cn2)c(=O)c2ccncc21` [Compound A31], the IC50 was 1900 nM. `Cn1ccc(=O)n(-c2ccc(C[C@H](NC(=O)c3cc(F)c(NS(=O)(=O)c4ccc(NC(=O)C(C)(C)C)cc4)cc3F)C(=O)O)cc2)c1=O` [Compound A42] gave an IC50 of 2500 nM. Compound `Cc1cn(C)c(=O)n(-c2ccc(C[C@H](NC(=O)c3cc(F)c(NS(=O)(=O)c4c[nH]c5cc(NC(=O)C(C)(C)C)ccc45)cc3F)C(=O)O)cn2)c1=O` [Compound A77] has an IC50 of 7100 nM. Compound `Cn1c(=O)n(-c2ccc(C[C@H](NC(=O)c3cc(F)c(NS(=O)(=O)c4ccc(NC(=O)C(C)(C)C)s4)cc3F)C(=O)O)cc2)c(=O)c2ccncc21` [Compound A9] has an IC50 of 160 nM. `CC(=O)Nc1ccc(S(=O)(=O)Nc2cc(F)c(C(=O)N[C@@H](Cc3ccc(-n4c(=O)c5ccncc5n(C)c4=O)cc3)C(=O)O)cc2F)cc1` [Compound A2] was tested, and the IC50 was 1100 nM. `Cn1ccc(=O)n(-c2ccc(C[C@H](NC(=O)c3cc(F)c(NS(=O)(=O)c4ccc(NC(=O)C(C)(C)C(F)(F)F)cc4)cc3F)C(=O)O)cn2)c1=O` [Compound A57] was tested, and the IC50 was 25000 nM. Compound `Cc1c(C)n(C)c(=O)n(-c2ccc(C[C@H](NC(=O)c3cc(F)c(NS(=O)(=O)c4ccc(NC(=O)C(C)(C)C)cn4)cc3F)C(=O)O)cc2)c1=O` [Compound A19] has an IC50 of 370 nM. With `Cn1ccc(=O)n(-c2ccc(C[C@H](NC(=O)c3cc(F)c(NS(=O)(=O)c4ccc(NC(=O)C5(C#N)CC5)cc4)cc3F)C(=O)O)cn2)c1=O` [Compound A59] the IC50 was greater than 31200 nM. `Cc1c(C)n(C)c(=O)n(-c2ccc(C[C@H](NC(=O)c3cc(F)c(NS(=O)(=O)c4ccc(NC(=O)C(C)(C)C)s4)cc3F)C(=O)O)cc2)c1=O` [Compound A10] showed an IC50 of 400 nM. With `Cc1cn(C)c(=O)n(-c2ccc(C[C@H](NC(=O)c3cc(F)c(NS(=O)(=O)c4ccc5c(NC(=O)C(C)(C)C)c[nH]c5c4)cc3F)C(=O)O)cn2)c1=O` [Compound A74] the IC50 was 7400 nM. In the case of `Cc1cn(C)c(=O)n(-c2ccc(C[C@H](NC(=O)c3cc(F)c(NS(=O)(=O)c4ccc(NC(=O)C(C)(C)C(F)(F)F)cc4)cc3F)C(=O)O)cn2)c1=O` [Compound A58], the IC50 is reported as 14000 nM. Work on `COC1(C(=O)Nc2ccc(S(=O)(=O)Nc3cc(F)c(C(=O)N[C@@H](Cc4ccc(-n5c(=O)c6ccncc6n(C)c5=O)cc4)C(=O)O)cc3F)cc2)CC1` [Compound A16] yielded an IC50 of 1200 nM. For `Cn1c(=O)n(-c2ccc(C[C@H](NC(=O)c3cc(F)c(NS(=O)(=O)c4ccc(NC(=O)C(C)(C)C)cc4)cc3F)C(=O)O)cn2)c(=O)c2ccncc21` [Compound A26], the IC50 was 4600 nM. `Cc1c(C)n(C)c(=O)n(-c2ccc(C[C@H](NC(=O)c3cc(F)c(NS(=O)(=O)c4ccc(NC(=O)C5CCOCC5)cc4)cc3F)C(=O)O)cc2)c1=O` [Compound A15] gave an IC50 of 950 nM. Compound `Cn1cnc2c1c(=O)n(-c1ccc(C[C@H](NC(=O)c3cc(F)c(NS(=O)(=O)c4ccc(NC(=O)C(C)(C)C)cc4)cc3F)C(=O)O)cc1)c(=O)n2C` [Compound A43] has an IC50 of 1200 nM. Work on `Cc1cn(C)c(=O)n(-c2ccc(C[C@H](NC(=O)c3cc(F)c(NS(=O)(=O)c4ccc(NC(=O)C#CC(C)(C)C)cc4)cc3F)C(=O)O)cn2)c1=O` [Compound A68] yielded an IC50 of 2300 nM. Compound `Cc1cc(=O)n(-c2ccc(C[C@H](NC(=O)c3cc(F)c(NS(=O)(=O)c4ccc(NC(=O)C(C)(C)C)cc4)cc3F)C(=O)O)cn2)c(=O)n1C` [Compound A45] has an IC50 of 10000 nM. Work on `Cn1c(=O)n(-c2ccc(C[C@H](NC(=O)c3cc(F)c(NS(=O)(=O)c4ccc(NC(=O)C5(c6ccccc6)CC5)cc4)cc3F)C(=O)O)cn2)c(=O)c2ccncc21` [Compound A29] yielded an IC50 of 12000 nM. For `Cn1ccc(=O)n(-c2ccc(C[C@H](NC(=O)c3cc(F)c(NS(=O)(=O)c4ccc(NC(=O)C(C)(C)C)cc4)cc3F)C(=O)O)cn2)c1=O` [Compound A53], the IC50 was greater than 31200 nM. Work on `Cn1ccc(=O)n(-c2ccc(C[C@H](NC(=O)c3cc(F)c(NS(=O)(=O)c4ccc(NC(=O)C5(C(F)(F)F)CC5)cc4)cc3F)C(=O)O)cn2)c1=O` [Compound A55] yielded an IC50 greater than 31200 nM. With `Cn1c2c(c(=O)n(-c3ccc(C[C@H](NC(=O)c4cc(F)c(NS(=O)(=O)c5ccc(NC(=O)C(C)(C)C)cc5)cc4F)C(=O)O)cn3)c1=O)CCCC2` [Compound A52] the IC50 was 2200 nM. `Cc1cn(C)c(=O)n(-c2ccc(C[C@H](NC(=O)c3cc(F)c(NS(=O)(=O)c4ccc(NC(=O)C(C)(C)CO)cc4)cc3F)C(=O)O)cn2)c1=O` [Compound A63] was tested, and the IC50 was greater than 31200 nM. With `Cc1c(CO)c(=O)n(-c2ccc(C[C@H](NC(=O)c3cc(F)c(NS(=O)(=O)c4ccc(NC(=O)C(C)(C)C)cc4)cc3F)C(=O)O)cc2)c(=O)n1C` [Compound A51] the IC50 was 5500 nM. With `Cn1c2c(c(=O)n(-c3ccc(C[C@H](NC(=O)c4cc(F)c(NS(=O)(=O)c5ccc(NC(=O)C(C)(C)C)cc5)cc4F)C(=O)O)cn3)c1=O)COCC2` [Compound A44] the IC50 was 3400 nM. `Cn1c(=O)n(-c2ccc(C[C@H](NC(=O)c3cc(F)c(NS(=O)(=O)c4ccc(NC(=O)c5ccncc5)cc4)cc3F)C(=O)O)cc2)c(=O)c2ccncc21` [Compound A7] gave an IC50 of 2000 nM. Compound `CCC(CC)C(=O)Nc1ccc(S(=O)(=O)Nc2cc(F)c(C(=O)N[C@@H](Cc3ccc(-n4c(=O)c(C)c(C)n(C)c4=O)cc3)C(=O)O)cc2F)cc1` [Compound A4] has an IC50 of 2500 nM. Work on `Cc1cn(C)c(=O)n(-c2ccc(C[C@H](NC(=O)c3cc(F)c(NS(=O)(=O)c4cc5cc(NC(=O)C(C)(C)C)ccc5[nH]4)cc3F)C(=O)O)cn2)c1=O` [Compound A76] yielded an IC50 of 25000 nM.
